The source of these data is patent US9296698B2, “Amino heteroaryl compounds as beta-secretase modulators and methods of use” (Amgen Inc., priority 2009, dated 2016).

The target of test [1] is BACE 1 (Beta Secretase enzyme) (Homo sapiens, UniProt P56817). Briefly: In vitro enzymatic BACE FRET assay. The test is classed as biochemical. The gist of the method: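 BACE activity read by FRET: peptide substrate (50 nM) carrying fluorophore and quencher across the cleavage site, incubated one hour in 0.05 M acetate pH 4.2, 10% DMSO final, 100 uM genapol. Tris addition raises pH to neutrality to stop the reaction before fluorescence is read.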
BACE 1 (Beta Secretase enzyme), sequence (P56817 46-501, species assumed): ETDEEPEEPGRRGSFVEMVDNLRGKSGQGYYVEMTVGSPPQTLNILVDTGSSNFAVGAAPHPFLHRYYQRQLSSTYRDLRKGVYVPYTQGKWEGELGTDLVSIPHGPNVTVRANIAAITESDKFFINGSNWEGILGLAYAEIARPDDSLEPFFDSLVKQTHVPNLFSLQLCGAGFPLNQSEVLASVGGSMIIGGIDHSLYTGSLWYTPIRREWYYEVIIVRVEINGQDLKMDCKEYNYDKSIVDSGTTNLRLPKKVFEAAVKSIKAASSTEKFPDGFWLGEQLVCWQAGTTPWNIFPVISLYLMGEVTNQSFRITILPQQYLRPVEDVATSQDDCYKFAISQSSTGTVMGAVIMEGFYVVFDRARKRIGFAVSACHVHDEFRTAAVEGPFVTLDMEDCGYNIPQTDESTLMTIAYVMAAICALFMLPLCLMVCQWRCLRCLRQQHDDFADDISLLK

Test [2] concerns Aβ40 in conditioned medium of cells stably expressing Amyloid Precursor Protein (APP). Briefly: In vitro BACE cell-based assay (HEK cell assay), Aβ40 sandwich ELISA. The gist of the method: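 Cells stably expressing APP received 10-point compound dilutions (top 100 μM or 10 μM; 0.1% DMSO) for 24 h. Secreted Aβ40 was quantified by sandwich ELISA (pAb40 capture, biotinylated 6E10 detection, europium time-resolved fluorescence). IC50 was derived from percent inhibition versus concentration.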

The mark [3] stands for this setting: IC50 range symbols, Table 1, read-out: BACE 1 FRET assay.
Where [4] appears, read: Homo sapiens, HEK293, 24 h, IC50 range symbols, Table 1, Aβ40, 24 h incubation, read-out: HEK cell assay.
The mark [5] stands for this setting: IC50 range symbols, Table 1, Aβ40, 24 h incubation, read-out: HEK cell assay.
The mark [6] stands for this setting: bound stated, read-out: IC50 value in the FRET BACE enzyme assay.

Read-outs that look alike come from different tables or passages of the source.

Turning to `CC(Cc1cc2cc(-c3ncccc3CCN3CCOCC3)ccc2nc1N)C(=O)NCCC(C)(C)C` (stereo not shown) [Example 123, 3-(2-amino-6-(3-(2-morpholinoethyl)pyridin-2-yl)quinolin-3-yl)-N-(3,3-dimethylbutyl)-2-methylpropanamide], the IC50 in test [1] (setting [3]) and in test [2] (setting [4]) was under 500 nM throughout.
As to `CC(Cc1cc2cc(-c3ncccc3CCN3CCN(C)CC3)ccc2nc1N)C(=O)NCCC(C)(C)C` (stereo not shown) [Example 124, 3-(2-amino-6-(3-(2-(4-methylpiperazin-1-yl)ethyl)pyridin-2-yl)quinolin-3-yl)-N-(3,3-dimethylbutyl)-2-methylpropanamide], the IC50 in test [1] (setting [3]) is 500 to 1000 nM; in test [2] (setting [4]), under 500 nM.
For the compound `CC(Cc1cc2cc(-c3ncccc3CCN3CCCC3)ccc2nc1N)C(=O)NCCC(C)(C)C` (stereo not shown) [Example 125, 3-(2-amino-6-(3-(2-(pyrrolidin-1-yl)ethyl)pyridin-2-yl)quinolin-3-yl)-N-(3,3-dimethylbutyl)-2-methylpropanamide], the IC50 in test [1] (setting [3]) and in test [2] (setting [4]) was under 500 nM throughout.
Regarding `CC(Cc1cc2cc(-c3ncccc3CCN(C)C)ccc2nc1N)C(=O)NCCC(C)(C)C` (stereo not shown) [Example 127, 3-(2-amino-6-(3-(2-(dimethylamino)ethyl)pyridin-2-yl)quinolin-3-yl)-N-(3,3-dimethylbutyl)-2-methylpropanamide], the IC50 in test [1] (setting [3]) and in test [2] (setting [4]) was under 500 nM each time.
For the compound `COc1ccccc1[C@@H](C)NC(=O)C(C)Cc1cc2cc(-c3ccccc3C)ccc2nc1N` (stereo partly drawn) [Example 129, 3-(2-amino-6-o-tolylquinolin-3-yl)-N-((R)-1-(2-methoxyphenyl)ethyl)-2-methylpropanamide], the IC50 in test [1] (setting [3]) is under 500 nM; in test [2] (setting [5]), 1000 to 5000 nM.
`Cc1ccccc1-c1ccc2nc(N)c(CC(C)C(=O)N[C@H](C)c3ccccc3OC(F)F)cc2c1` (stereo partly drawn) [Example 130, 3-(2-amino-6-o-tolylquinolin-3-yl)-N-((R)-1-(2-(difluoromethoxy)phenyl)ethyl)-2-methylpropanamide]: the IC50 is under 500 nM in test [1] (setting [3]) and 1000 to 5000 nM in test [2] (setting [5]).
In the same order, the values of `Cc1ccccc1-c1ccc2nc(N)c(CCC(=O)N[C@H](C)c3cccnc3)cc2c1` [Example 131, (R)-3-(2-amino-6-o-tolylquinolin-3-yl)-N-(1-(pyridin-3-yl)ethyl)propanamide] are under 500 nM and 1000 to 5000 nM.
Turning to `Cc1cccnc1-c1ccc2nc(N)c(CCC(=O)N[C@H](C)c3cccnc3)cc2c1` [Example 132, (R)-3-(2-amino-6-(3-methylpyridin-2-yl)quinolin-3-yl)-N-(1-(pyridin-3-yl)ethyl)propanamide], the IC50 in test [1] (setting [3]) was 1000 to 5000 nM; in test [2] (setting [4]), over 5000 nM.
In the same order, the values of `Cc1cccnc1-c1ccc2nc(N)c(CCC(=O)N[C@H](C)c3ccccc3OC(F)F)cc2c1` [Example 133, (R)-3-(2-amino-6-(3-methylpyridin-2-yl)quinolin-3-yl)-N-(1-(2-(difluoromethoxy)phenyl)ethyl)propanamide] are 1000 to 5000 nM and over 5000 nM.
On to `Cc1ccccc1-c1ccc2nc(N)c(CCC(=O)N3CCC(F)(F)C3)cc2c1` [Example 134, 3-(2-amino-6-o-tolylquinolin-3-yl)-1-(3,3-difluoropyrrolidin-1-yl)propan-1-one], for which the IC50 in test [1] (setting [3]) is 1000 to 5000 nM; in test [2] (setting [4]), over 5000 nM.
Regarding `Cc1ccccc1-c1cc2cc(CCC(=O)NCCC(C)(C)C)c(N)nc2cn1` [Example 135, 3-(2-amino-6-o-tolyl-1,7-naphthyridin-3-yl)-N-(3,3-dimethylbutyl)propanamide], the IC50 in test [1] (setting [3]) was under 500 nM; in test [1] (setting [6]) it was under 50 nM; in test [2] (setting [4]) it was over 5000 nM.
For `Cc1ccccc1-c1cc2cc(CC(C)C(=O)NCc3ccccc3)c(N)nc2cn1` (stereo not shown) [Example 136, 3-(2-amino-6-o-tolyl-1,7-naphthyridin-3-yl)-N-benzyl-2-methylpropanamide], in that order: under 500 nM, under 50 nM and 1000 to 5000 nM.
As for `Cc1ccccc1-c1cc2cc(CC(C)C(=O)NCCC(F)(F)F)c(N)nc2cn1` (stereo not shown) [Example 137, 3-(2-amino-6-o-tolyl-1,7-naphthyridin-3-yl)-2-methyl-N-(3,3,3-trifluoropropyl)propanamide], the IC50 is under 500 nM in test [1] (setting [3]) and over 5000 nM in test [2] (setting [4]).
As to `Cc1ccccc1-c1cc2cc(CC(C)C(=O)NCCC(C)(C)C)c(N)nc2cn1` (stereo not shown) [Example 138, 3-(2-amino-6-o-tolyl-1,7-naphthyridin-3-yl)-N-(3,3-dimethylbutyl)-2-methylpropanamide], the IC50 in test [1] (setting [3]) was under 500 nM; in test [1] (setting [6]), under 50 nM; in test [2] (setting [4]), under 500 nM.
Regarding `Cc1ccccc1-c1ccc2nc(N)c(CCC(=O)NCc3ccnnc3)cc2c1` [Example 139, 3-(2-amino-6-o-tolylquinolin-3-yl)-N-(pyridazin-4-ylmethyl)propanamide], the IC50 was 1000 to 5000 nM in test [1] (setting [3]) and over 5000 nM in test [2] (setting [4]).
For `Cc1ccccc1-c1ccc2nc(N)c(CCC(=O)NCC3CCCCC3)nc2c1` [Example 140, 3-(3-amino-7-(2-methylphenyl)-2-quinoxalinyl)-N-(cyclohexylmethyl)propanamide], in that order: under 500 nM and 1000 to 5000 nM.
For `Cc1ccccc1-c1ccc2nc(N)c(CCC(=O)NCCC(C)(C)O)cc2c1` [Example 141, 3-(2-amino-6-(2-methylphenyl)-3-quinolinyl)-N-(3-hydroxy-3-methylbutyl)propanamide], in that order: under 500 nM and 500 to 1000 nM.
In the same order, the values of `CC(Cc1cc2cc(-c3ccccc3C#N)ccc2nc1N)C(=O)NC1CCOC(C)(C)C1` (stereo not shown) [Example 142, 3-(2-amino-6-(2-cyanophenyl)-3-quinolinyl)-N-(2,2-dimethyltetrahydro-2H-pyran-4-yl)-2-methylpropanamide] are under 500 nM and under 500 nM.
As for `CC(=O)c1ccccc1-c1ccc2nc(N)c(CC(C)C(=O)NC3CCOC(C)(C)C3)cc2c1` (stereo not shown) [Example 143, 3-(6-(2-acetylphenyl)-2-amino-3-quinolinyl)-N-(2,2-dimethyltetrahydro-2H-pyran-4-yl)-2-methylpropanamide], the IC50 in test [1] (setting [3]) and in test [2] (setting [4]) was under 500 nM throughout.
Regarding `Cc1ccccc1-c1ccc2nc(N)c(CCC(=O)NCC(C)(C)O)cc2c1` [Example 144, 3-(2-amino-6-(2-methylphenyl)-3-quinolinyl)-N-(2-hydroxy-2-methylpropyl)propanamide], the IC50 in test [1] (setting [3]) and in test [2] (setting [4]) was 1000 to 5000 nM throughout.
In the case of `CC(Cc1cc2cc(-c3ccccc3C(=O)C3CCCCC3)ccc2nc1N)C(=O)NC1CCOC(C)(C)C1` (stereo not shown) [Example 147, 3-(2-amino-6-(2-(cyclohexylcarbonyl)phenyl)-3-quinolinyl)-N-(2,2-dimethyltetrahydro-2H-pyran-4-yl)-2-methylpropanamide], the IC50 in test [1] (setting [3]) and in test [2] (setting [4]) was under 500 nM in each case.
Consider `CNC(=O)C(C)Cc1cc2cc(-c3c(C)cccc3C(=O)N3CCCC3)ccc2nc1N` (stereo not shown) [Example 148, 3-(2-Amino-6-(2-methyl-6-(pyrrolidine-1-carbonyl)phenyl)quinolin-3-yl)-N, 2-dimethylpropanamide], for which the IC50 in test [1] (setting [3]) and in test [2] (setting [4]) was under 500 nM each time.
`Cc1cccc(C(=O)N2CCCC2)c1-c1ccc2nc(N)c(CC(C)C(=O)NCc3ccccn3)cc2c1` (stereo not shown) [Example 149, 3-(2-amino-6-(2-methyl-6-(pyrrolidine-1-carbonyl)phenyl)quinolin-3-yl)-2-methyl-N-(pyridin-2-ylmethyl)propanamide]: the IC50 in test [1] (setting [3]) and in test [2] (setting [4]) was under 500 nM in each case.
For `Cc1cccc(C(=O)N2CCCC2)c1-c1ccc2nc(N)c(CC(C)C(=O)NC3CC3)cc2c1` (stereo not shown) [Example 150, 3-(2-amino-6-(2-methyl-6-(pyrrolidine-1-carbonyl)phenyl)quinolin-3-yl)-N-cyclopropyl-2-methylpropanamide], the IC50 in test [1] (setting [3]) and in test [2] (setting [4]) was under 500 nM each time.
For `Cc1cccc(C(=O)N2CCCC2)c1-c1ccc2nc(N)c(CC(C)C(=O)NCc3ccccc3)cc2c1` (stereo not shown) [Example 151, 3-(2-amino-6-(2-methyl-6-(pyrrolidine-1-carbonyl)phenyl)quinolin-3-yl)-N-benzyl-2-methylpropanamide], the IC50 in test [1] (setting [3]) and in test [2] (setting [4]) was under 500 nM in each case.
`CC(=O)c1ccccc1-c1ccc2nc(N)c(CC(C)C(=O)Nc3ccccc3)cc2c1` (stereo not shown) [Example 152, 3-(6-(2-acetylphenyl)-2-aminoquinolin-3-yl)-2-methyl-N-phenylpropanamide]: the IC50 in test [1] (setting [3]) and in test [2] (setting [4]) was under 500 nM in each case.
For the compound `Cc1cccc(C(=O)N2CCCC2)c1-c1ccc2nc(N)c(CC(C)C(=O)Nc3ccccc3)cc2c1` (stereo not shown) [Example 153, 3-(2-amino-6-(2-methyl-6-(pyrrolidine-1-carbonyl)phenyl)quinolin-3-yl)-2-methyl-N-phenylpropanamide], the IC50 in test [1] (setting [3]) was under 500 nM; in test [1] (setting [6]), under 50 nM; in test [2] (setting [4]) it was under 500 nM; in test [2] (Homo sapiens, HEK293, bound stated in text, read-out: IC50 value in the BACE cell-based in-vitro assay), under 100 nM.
For the compound `CNC(=O)C(C)Cc1cc2cc(-c3ccccc3C(C)=O)ccc2nc1N` (stereo not shown) [Example 154, 3-(6-(2-acetylphenyl)-2-aminoquinolin-3-yl)-N,2-dimethylpropanamide], the IC50 in test [1] (setting [3]) and in test [2] (setting [4]) was over 5000 nM in each case.
